This note sets out measurements from patent US20140371137A1, “PREPARATION OF PNA-6-AMINOGLUCOSAMINE CONJUGATES AS ANTIVIRAL AGENTS” (priority 2013, published 2014).

One data set has as its system HCV 5'NTR RNA. Briefly: Gel electrophoretic mobility shift analysis (EMSA) of PNA-glucosamine conjugate binding to HCV 5'NTR RNA transcript. The note with it: for gel retardation of the labeled RNA: 20 nM HCV 5'NTR RNA transcript. On the procedure:
FIG. 10. Stoichiometry of binding of PNA-glucosamine conjugate to its target sequence: (A) The PCR product corresponding to domains III and IV of 5′NTR and the 36 nucleotide of the N-terminal coding sequence of the HCV core were transcribed to generate 244-base runoff transcripts using a T7 transcription kit from Roche Applied Sciences. The 20 nM of internally 32P labeled HCV 5′NTR RNA transcript was incubated either with various concentrations of PNA-glucosamine conjugate complementary to sequence 352-338 in domain IV of the 5′NTR or (B) scramble PNA-glucosamine conjugate. Binding of the PNA-glucosamine conjugate (PNAHCV 352-338) to its target sequence was evaluated by gel electrophoretic mobility shift analysis (EMSA). Lane 1, control without PNA conjugate; lane 2, 10 nM of PNA conjugate; lane 3, 15 nM of PNA conjugate; lane 4, 20 nM of conjugate, lane 5, 25 nM of conjugate.
Target specificity of antisense PNA: Using a PNA-glucosamine conjugate targeted to the translation initiation window (352-338: […]) in Domain IV of HCV 5′NTR, we have shown that it has great specificity for the targeted sequence. The PNA-glucosamine conjugate ([…]) forms a tight complex with HCV RNA at a stoichiometric ratio (FIG. 10).

The subject of data set [1] is HCV subgenomic replicons in MH14 cells. Briefly: Inhibition of viral translation and replication in MH14 cells carrying HCV subgenomic replicons. The class given is cell-based. Background: A replicon is a self-replicating genome or part of one, used to study replication in cells.

On to “PNAHCV353-338: PNA-glucosamine conjugate targeted to the translation initiation window (352-338: TTCGTGCTCATGGTG) in Domain IV of HCV 5'NTR (all peptide nucleic acid (PNA); glucosamine conjugate attached)”, for which the entries for the “gel retardation of the labeled RNA” value with HCV 5'NTR RNA (1:0.5 ratio of target RNA to PNA conjugate) and in the data set on HCV 5'NTR RNA (1:0.75 ratio of target RNA to PNA conjugate) were 50% and 75%, respectively. For the same substance, the “gel shift of the target RNA” value in the data set with HCV 5'NTR RNA (stoichiometric ratios of 1:1 or greater) is given as “complete gel shift”. Moreover, the “HCV translation (viral protein NS5B, Western blot)” value in data set [1] (72 h, 50, 100 and 200 nM conjugate (FIG. 13A)) is given as “efficiently blocked at a subnanomolar concentration”. Besides, in data set [1] (72 h, 50, 100 and 200 nM conjugate (FIG. 13B)), the “HCV replication (viral RNA, RT PCR)” value is “efficiently blocked at a subnanomolar concentration”.
